# System: NCI H-226 cells
# Experiment: Cytotoxicity MTT assay against NCI H-226 cells
# Type: cell-based
# Conditions: NCI H-226 cells (4 × 10^4), 72 hrs treatment, mean ± S.D. of three experiments
# Experimental: The target compound 5, 6 and related succinate (A), glutamate (B) derivatives were evaluated in a MTT assay against NCI H226 cells, and the results are shown in Table 1.
# The NCI H-226 cells were maintained in RPMI-1640 medium supplemented with 10% fetal bovine serum (GIBCO/BRL), penicillin (100 unit/mL)/streptomycin (100 μg/mL) (GIBCO/BRL) and 1% L-glutamine (GIBCO/BRL) at 37° C. in a humidified atmosphere containing 5% CO2. Logarithmically growing tumor cells were used for all experiments.
# The cytotoxicity was assessed using MTT assay.^1 NCI H-226 cells (4×10^4) were treated separately with compounds A, B, 5, and 6 for 72 h. After treatment, the cells were collected, washed with cold PBS, and then added 10 μL of MTT solution (5 mg/mL)(Sigma) with 50 μL of cells suspension in HBSS into 96-well plate and incubated them at 37° C. in the dark for 2 h. Treatment of living cells with MTT produces a dark blue formazan product, whereas no such staining is observed in dead cells. The formazan product was dissolved by adding 140 μL DMSO and then the absorbance was measured on an ELISA reader at a best wavelength of 570 nm.
# Values are expression as the mean ±S.D. of three independent experiments. Student's t tests were used to assess the statistical significance of the differences, with “p” values of less than 0.05 being considered statistically significant.
structure (smiles),measurement,setting,value
NCC(=O)OCc1ccc(-c2nn(Cc3ccccc3)c3ccccc23)o1 [Compound 5],MTT %,Conc. 0.10 μM,85.8 ± 1.7%
same,MTT %,Conc. 1.0 μM,18.5 ± 3.9%
same,MTT %,Conc. 10.0 μM,0%

# Reference: patent US7767707B2, “Fused pyrazolyl compounds having an aminoalkylcarbonyl group” (Yung Shin Pharm. Ind. Co., Ltd., priority 2007, dated 2010)
